Reference: patent US20210369667A1, “COMPOSITIONS AND METHODS FOR THE PREVENTION AND TREATMENT OF RADIATION DERMATITIS, ECZEMA, BURNS, WOUNDS AND CERTAIN CANCERS” (VIZURI HEALTH SCIENCES CONSUMER HEALTHCARE, INC., priority 2019, published 2021)
Values belong to the compound of their own block, whether it stands above or below them.

Columns and labels:
[1] = Apigenin solubility in NaOH solutions; assay type: physicochemical; conditions: sodium hydroxide solution, aqueous buffer
Source text: A good solubility of polyphenols in the alkaline medium is very important in generating well hydrated polyphenols upon acidification. The regenerated hydrated products mix well in the formulations. Sodium hydroxide solution is an effective solubilizer at different concentrations for apigenin, a polyphenol flavonoid. This is exemplified in the table below— Apigenin Solubility in NaOH Solutions [table]

[2] = tested on: acute radiation dermatitis; conditions: 49 patients; prophylactic MMF with emollient cream vs emollient cream alone; cited from earlier work
[3] = SEM particle morphology of hydrated apigenin; assay type: physicochemical
Source text: Scanning Electron Microscopy (SEM) images of the hydrated apigenin, and unprocessed apigenin powder were collected to determine particle morphology details. […] The chemical composition as determined by FTIR and Raman Spectroscopy, could not detect any chemical differences in the unprocessed apigenin and the hydrated apigenin. […] The hydrated apigenin was composed of fibers with diameters of 30-500 nm (a range of being nano-fibers) with aspect ratios measuring greater than 20.

solubility ([1]; NaOH Molarity 0.75 moles/liter): > 150 mg/mL | solubility ([1]; NaOH Molarity 1.015 moles/liter): > 200 mg/mL | solubility ([1]; NaOH Molarity 2.0 moles/liter): > 300 mg/mL
SMILES: O=c1cc(-c2ccc(O)cc2)oc2cc(O)cc(O)c12 [Apigenin]

SMILES: C[C@@H]1C[C@H]2[C@@H]3CCC4=CC(=O)C=C[C@]4(C)[C@@]3(Cl)[C@@H](O)C[C@]2(C)[C@@]1(OC(=O)c1ccco1)C(=O)CCl [MMF, mometasone furoate]
acute radiation dermatitis [2]: significantly decreased acute radiation dermatitis

aspect ratios of fibers [3]: greater than 20 | fiber diameters [3]: 30-500 nm
SMILES: O=c1cc(-c2ccc(O)cc2)oc2cc(O)cc(O)c12 [hydrated apigenin]
